# According to patent US20070049564A1 (Wyeth, priority 2005, published 2007):
# Assays:
# Assay in all cases: MIC, broth microdilution
# [1] = tested on: S. typhimurium GC 2172; conditions: Salmonella enterica, TYPHIMURIUM
# [2] = tested on: E. coli GC 6465; conditions: Escherichia coli
# [3] = tested on: S. pyogenes GC 4563; conditions: Streptococcus pyogenes
# [4] = tested on: S. aureus GC 1079; conditions: Staphylococcus aureus
# [5] = tested on: S. aureus GC 6335; conditions: Staphylococcus aureus
# Procedure: Antimicrobial susceptibility testing. The in vitro activities of the antibiotics are determined by the broth microdilution method as recommended by the National Committee for Clinical Laboratory Standards (NCCLS) (1). Mueller-Hinton II broth (MHBII)(BBL Cockeysville, Md.) is the medium employed in the testing procedures. Microtiter plates containing serial dilutions of each antimicrobial agent are inoculated with each organism to yield the appropriate density (10^5 CFU/ml) in a 100 μl final volume. The plates are incubated for 18-22 hours at 35° C. in ambient air.
# Representative compounds were first incubated in mouse serum for an hour prior to the in vitro testing against a panel of selected gram-positive and gram-negative bacteria strains. All compounds were also pre-incubated in water for an hour prior to testing as control. Representative compounds of Formula I were incubated in human serum prior to MIC determination.
# [6] = tested on: E. coli GC 2233; conditions: Escherichia coli
# [7] = tested on: E. coli GC 4559; conditions: Escherichia coli
# [8] = tested on: E. coli GC 2235; conditions: Escherichia coli
# [9] = tested on: S. aureus GC 6466; conditions: Staphylococcus aureus
# [10] = tested on: E. coli GC 4560; conditions: Escherichia coli
# [11] = tested on: E. coli GC 2234; conditions: Escherichia coli
# [12] = tested on: E. coli GC 2271; conditions: Escherichia coli
# [13] = tested on: S. agalactiae GC 4564; conditions: Streptococcus agalactiae
# [14] = tested on: S. aureus GC 6467; conditions: Staphylococcus aureus
# [15] = tested on: E. coli GC 2203; conditions: Escherichia coli
# [16] = tested on: S. aureus GC 6469; conditions: Staphylococcus aureus
# [17] = tested on: E. coli GC 1073; conditions: Escherichia coli
# [18] = tested on: E. coli GC 2270; conditions: Escherichia coli
# [19] = tested on: E. faecium GC 4556; conditions: Enterococcus faecium
# [20] = tested on: E. coli GC 3226; conditions: Escherichia coli
# [21] = GC6465, pre-incubation in human serum
# [22] = GC6465, pre-incubation in mouse serum
# [23] = GC6465, pre-incubation in water
# [24] = GC4563, pre-incubation in human serum
# [25] = GC4563, pre-incubation in mouse serum
# [26] = GC4563, pre-incubation in water
# [27] = GC1079, pre-incubation in human serum
# [28] = GC1079, pre-incubation in mouse serum
# [29] = GC1079, pre-incubation in water
# [30] = GC6335, pre-incubation in human serum
# [31] = GC6335, pre-incubation in mouse serum
# [32] = GC6335, pre-incubation in water
# [33] = GC2233, pre-incubation in human serum
# [34] = GC2233, pre-incubation in mouse serum
# [35] = GC2233, pre-incubation in water
# [36] = GC4559, pre-incubation in human serum
# [37] = GC4559, pre-incubation in mouse serum
# [38] = GC4559, pre-incubation in water
# [39] = GC2235, pre-incubation in human serum
# [40] = GC2235, pre-incubation in mouse serum
# [41] = GC2235, pre-incubation in water
# [42] = GC6466, pre-incubation in human serum
# [43] = GC6466, pre-incubation in mouse serum
# [44] = GC6466, pre-incubation in water
# [45] = GC4560, pre-incubation in human serum
# [46] = GC4560, pre-incubation in mouse serum
# [47] = GC4560, pre-incubation in water
# [48] = GC2234, pre-incubation in human serum
# [49] = GC2234, pre-incubation in mouse serum
# [50] = GC2234, pre-incubation in water
# [51] = GC2271, pre-incubation in human serum
# [52] = GC2271, pre-incubation in mouse serum
# [53] = GC2271, pre-incubation in water
# [54] = GC4564, pre-incubation in human serum
# [55] = GC4564, pre-incubation in mouse serum
# [56] = GC4564, pre-incubation in water
# [57] = GC6467, pre-incubation in human serum
# [58] = GC6467, pre-incubation in mouse serum
# [59] = GC6467, pre-incubation in water
# [60] = GC2203, pre-incubation in human serum
# [61] = GC2203, pre-incubation in mouse serum
# [62] = GC2203, pre-incubation in water
# [63] = GC6469, pre-incubation in human serum
# [64] = GC6469, pre-incubation in mouse serum
# [65] = GC6469, pre-incubation in water
# [66] = GC1073, pre-incubation in human serum
# [67] = GC1073, pre-incubation in mouse serum
# [68] = GC1073, pre-incubation in water
# [69] = GC2270, pre-incubation in human serum
# [70] = GC2270, pre-incubation in mouse serum
# [71] = GC2270, pre-incubation in water
# [72] = GC4556, pre-incubation in human serum
# [73] = GC4556, pre-incubation in mouse serum
# [74] = GC4556, pre-incubation in water
# [75] = GC3226, pre-incubation in human serum
# [76] = GC3226, pre-incubation in mouse serum
# [77] = GC3226, pre-incubation in water
structure (smiles),measurement,setting,value
"CN(C)c1cc(NC(=O)CN(C(=O)OCOC(=O)C2CCC2)C(C)(C)C)c(O)c2c1C[C@H]1C[C@H]3[C@H](N(C)C)C(O)=C(C(N)=O)C(=O)[C@@]3(O)C(O)=C1C2=O [Example 62, ({[(2-{[(5aR,6aS,7S,10aS)-9-(aminocarbonyl)-4,7-bis(dimethylamino)-1,8,10a,11-tetrahydroxy-10,12-dioxo-5,5a,6,6a,7,10,10a,12-octahydrotetracen-2-yl]amino}-2-oxoethyl)(tert-butyl)amino]carbonyl}oxy)methyl cyclobutanecarboxylate]",MIC,[1]; pre-incubation in human serum,16 µg/mL
same,MIC,[1]; pre-incubation in mouse serum,2 µg/mL
same,MIC,[1]; pre-incubation in water,> 64 µg/mL
same,MIC,[2]; [21],8 µg/mL
same,MIC,[2]; [22],2 µg/mL
same,MIC,[2]; [23],> 64 µg/mL
same,MIC,[3]; [24],0.12 µg/mL
same,MIC,[3]; [25],0.25 µg/mL
same,MIC,[3]; [26],0.25 µg/mL
same,MIC,[4]; [27],0.5 µg/mL
same,MIC,[4]; [28],1 µg/mL
same,MIC,[4]; [29],0.5 µg/mL
same,MIC,[5]; [30],0.5 µg/mL
same,MIC,[5]; [31],1 µg/mL
same,MIC,[5]; [32],0.5 µg/mL
same,MIC,[6]; [33],4 µg/mL
same,MIC,[6]; [34],2 µg/mL
same,MIC,[6]; [35],8 µg/mL
same,MIC,[7]; [36],8 µg/mL
same,MIC,[7]; [37],1 µg/mL
same,MIC,[7]; [38],16 µg/mL
same,MIC,[8]; [39],2 µg/mL
same,MIC,[8]; [40],0.5 µg/mL
same,MIC,[8]; [41],4 µg/mL
same,MIC,[9]; [42],0.5 µg/mL
same,MIC,[9]; [43],0.5 µg/mL
same,MIC,[9]; [44],0.25 µg/mL
same,MIC,[10]; [45],0.5 µg/mL
same,MIC,[10]; [46],0.25 µg/mL
same,MIC,[10]; [47],0.5 µg/mL
same,MIC,[11]; [48],2 µg/mL
same,MIC,[11]; [49],1 µg/mL
same,MIC,[11]; [50],8 µg/mL
same,MIC,[12]; [51],2 µg/mL
same,MIC,[12]; [52],1 µg/mL
same,MIC,[12]; [53],4 µg/mL
same,MIC,[13]; [54],0.12 µg/mL
same,MIC,[13]; [55],0.25 µg/mL
same,MIC,[13]; [56],0.25 µg/mL
same,MIC,[14]; [57],0.5 µg/mL
same,MIC,[14]; [58],1 µg/mL
same,MIC,[14]; [59],0.5 µg/mL
same,MIC,[15]; [60],4 µg/mL
same,MIC,[15]; [61],1 µg/mL
same,MIC,[15]; [62],16 µg/mL
same,MIC,[16]; [63],0.5 µg/mL
same,MIC,[16]; [64],1 µg/mL
same,MIC,[16]; [65],1 µg/mL
same,MIC,[17]; [66],4 µg/mL
same,MIC,[17]; [67],0.5 µg/mL
same,MIC,[17]; [68],16 µg/mL
same,MIC,[18]; [69],2 µg/mL
same,MIC,[18]; [70],0.5 µg/mL
same,MIC,[18]; [71],8 µg/mL
same,MIC,[19]; [72],1 µg/mL
same,MIC,[19]; [73],1 µg/mL
same,MIC,[19]; [74],1 µg/mL
same,MIC,[20]; [75],4 µg/mL
same,MIC,[20]; [76],1 µg/mL
same,MIC,[20]; [77],8 µg/mL
"CN(C)c1cc(NC(=O)CN(C(=O)OCOC(=O)CCC2CCCCC2)C(C)(C)C)c(O)c2c1C[C@H]1C[C@H]3[C@H](N(C)C)C(O)=C(C(N)=O)C(=O)[C@@]3(O)C(O)=C1C2=O [Example 63, ({[(2-{[(5aR,6aS,7S,10aS)-9-(aminocarbonyl)-4,7-bis(dimethylamino)-1,8,10a,11-tetrahydroxy-10,12-dioxo-5,5a,6,6a,7,10,10a,12-octahydrotetracen-2-yl]amino}-2-oxoethyl)(tert-butyl)amino]carbonyl}oxy)methyl 3-cyclohexylpropanoate]",MIC,[1]; pre-incubation in human serum,> 64 µg/mL
same,MIC,[1]; pre-incubation in mouse serum,2 µg/mL
same,MIC,[1]; pre-incubation in water,> 64 µg/mL
same,MIC,[2]; [21],> 64 µg/mL
same,MIC,[2]; [22],2 µg/mL
same,MIC,[2]; [23],> 64 µg/mL
same,MIC,[3]; [24],0.12 µg/mL
same,MIC,[3]; [25],0.12 µg/mL
same,MIC,[3]; [26],0.12 µg/mL
same,MIC,[4]; [27],2 µg/mL
same,MIC,[4]; [28],1 µg/mL
same,MIC,[4]; [29],8 µg/mL
same,MIC,[5]; [30],1 µg/mL
same,MIC,[5]; [31],1 µg/mL
same,MIC,[5]; [32],4 µg/mL
same,MIC,[6]; [33],> 64 µg/mL
same,MIC,[6]; [34],1 µg/mL
same,MIC,[6]; [35],> 64 µg/mL
same,MIC,[7]; [36],> 64 µg/mL
same,MIC,[7]; [37],2 µg/mL
same,MIC,[7]; [38],> 64 µg/mL
same,MIC,[8]; [39],> 64 µg/mL
same,MIC,[8]; [40],0.5 µg/mL
same,MIC,[8]; [41],> 64 µg/mL
same,MIC,[9]; [42],1 µg/mL
same,MIC,[9]; [43],0.5 µg/mL
same,MIC,[9]; [44],2 µg/mL
same,MIC,[10]; [45],2 µg/mL
same,MIC,[10]; [46],0.5 µg/mL
same,MIC,[10]; [47],16 µg/mL
same,MIC,[11]; [48],64 µg/mL
same,MIC,[11]; [49],1 µg/mL
same,MIC,[11]; [50],> 64 µg/mL
same,MIC,[12]; [51],> 64 µg/mL
same,MIC,[12]; [52],0.5 µg/mL
same,MIC,[12]; [53],> 64 µg/mL
same,MIC,[13]; [54],0.25 µg/mL
same,MIC,[13]; [55],0.25 µg/mL
same,MIC,[13]; [56],0.25 µg/mL
same,MIC,[14]; [57],4 µg/mL
same,MIC,[14]; [58],2 µg/mL
same,MIC,[14]; [59],16 µg/mL
same,MIC,[15]; [60],> 64 µg/mL
same,MIC,[15]; [61],1 µg/mL
same,MIC,[15]; [62],> 64 µg/mL
same,MIC,[16]; [63],2 µg/mL
same,MIC,[16]; [64],1 µg/mL
same,MIC,[16]; [65],16 µg/mL
same,MIC,[17]; [66],> 64 µg/mL
same,MIC,[17]; [67],2 µg/mL
same,MIC,[17]; [68],> 64 µg/mL
same,MIC,[18]; [69],64 µg/mL
same,MIC,[18]; [70],0.5 µg/mL
same,MIC,[18]; [71],> 64 µg/mL
same,MIC,[19]; [72],4 µg/mL
same,MIC,[19]; [73],1 µg/mL
same,MIC,[19]; [74],0.5 µg/mL
same,MIC,[20]; [75],> 64 µg/mL
same,MIC,[20]; [76],1 µg/mL
same,MIC,[20]; [77],> 64 µg/mL
